From patent US20200216416A1, “QUINOLINE COMPOUNDS AS INHIBITORS OF TAM AND MET KINASES” (Array BioPharma Inc., priority 2019, published 2020)

Columns and labels:
human MET kinase L1195V = biological target: T1, human MET kinase L1195V (Homo sapiens, UniProt P08581, L1195V); assay: c-Met Enzyme Assay, L1195V mutant; type: binding; settings: averaged IC50; L1195V 10 nM; 60-minute incubation at 22° C.
T1 construct: GST-tagged recombinant human MET kinase domain; purchased Signal Chem
Description: (§1) The affinity of compound binding to wild type and mutant human MET kinases was measured using Invitrogen's LanthaScreen™ Eu Kinase Binding technology. Briefly, GST-tagged recombinant human MET kinase domain from Signal Chem (see Table 8 below for concentration in assay) was incubated with 50 nM Alexa-Fluor® Tracer 236 (Invitrogen Cat No. PR9078A) and 2 nM Europium-anti-GST (Invitrogen Cat. No. A15116) along with test compound in a buffer consisting of 25 mM HEPES, pH 7.4, 10 mM MgCl2, 0.01% Triton X-100, 1mM DTT, and 2% DMSO. Compounds were typically prepared in a three-fold serial dilution in DMSO and added to the assay to give the appropriate final concentration. After a 60-minute incubation at 22° C., the reaction was measured using a PerkinElmer EnVision multimode plate reader via TR-FRET dual wavelength detection, and the percent of control (POC) calculated using a ratiometric emission factor. […] The POC values were fit to a 4 parameter logistic curve and the IC50 value is point where the curve crosses 50 POC.

human MET kinase F1200I = biological target: T2, human MET kinase F1200I (Homo sapiens, UniProt P08581, F1200I); assay: c-Met Enzyme Assay, F1200I mutant; type: binding; settings: averaged IC50; F1200I 2 nM; 60-minute incubation at 22° C.
T2 construct: GST-tagged recombinant human MET kinase domain; purchased Signal Chem
T2 sequence (P08581 1078-1345 F1200I limits assumed): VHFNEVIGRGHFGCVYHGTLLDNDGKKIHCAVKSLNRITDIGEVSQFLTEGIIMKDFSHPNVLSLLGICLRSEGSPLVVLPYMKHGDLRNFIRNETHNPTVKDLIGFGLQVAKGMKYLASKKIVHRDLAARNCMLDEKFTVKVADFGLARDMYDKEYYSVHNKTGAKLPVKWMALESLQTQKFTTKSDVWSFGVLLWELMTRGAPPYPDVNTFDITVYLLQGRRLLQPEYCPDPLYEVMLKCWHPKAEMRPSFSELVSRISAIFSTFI
Description: as §1

[1] = biological target: T3, human MET kinase del Ex14 (Homo sapiens, UniProt P08581, DEL963-1009); assay: c-Met Enzyme Assay, del Ex14 mutant; type: binding; settings: averaged IC50; del Ex14 5 nM; 60-minute incubation at 22° C.; read-out: Del14 IC50
T3 construct: GST-tagged recombinant human MET kinase domain; purchased Signal Chem
T3 sequence (P08581 with tags, fused parts or gaps DEL963-1009 limits assumed): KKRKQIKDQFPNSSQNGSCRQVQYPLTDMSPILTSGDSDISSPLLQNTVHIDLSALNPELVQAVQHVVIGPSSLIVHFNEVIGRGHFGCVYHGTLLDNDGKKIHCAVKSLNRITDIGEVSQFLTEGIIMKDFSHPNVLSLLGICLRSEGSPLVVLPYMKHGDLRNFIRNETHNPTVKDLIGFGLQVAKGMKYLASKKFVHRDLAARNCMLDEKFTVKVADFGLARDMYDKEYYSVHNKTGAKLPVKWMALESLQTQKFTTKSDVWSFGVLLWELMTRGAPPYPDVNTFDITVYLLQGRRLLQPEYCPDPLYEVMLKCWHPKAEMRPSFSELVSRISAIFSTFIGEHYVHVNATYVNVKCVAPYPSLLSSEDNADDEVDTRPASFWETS
Description: as §1

[2] = biological target: T4, MET (wt) GST-tagged recombinant human MET kinase domain (Homo sapiens, UniProt P08581); assay: c-Met Enzyme Assay, wild type (LanthaScreen Eu Kinase Binding); settings: averaged IC50; MET (wt) 10 nM; 60-minute incubation at 22° C.; read-out: SigChem WT IC50
T4 construct: GST-tagged recombinant human MET kinase domain; purchased Signal Chem
T4 sequence (P08581 1078-1345 limits assumed): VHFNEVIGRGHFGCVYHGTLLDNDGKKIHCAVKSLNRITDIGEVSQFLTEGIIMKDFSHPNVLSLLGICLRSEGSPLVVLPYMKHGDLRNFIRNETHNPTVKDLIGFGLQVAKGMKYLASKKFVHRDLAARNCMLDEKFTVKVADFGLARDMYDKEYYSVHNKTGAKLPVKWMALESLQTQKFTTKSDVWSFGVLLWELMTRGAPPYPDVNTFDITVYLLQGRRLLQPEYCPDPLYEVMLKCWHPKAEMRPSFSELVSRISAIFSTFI
Description: as §1

[3] = biological target: T5, GST-tagged recombinant human TYRO3 kinase domain (Homo sapiens, UniProt Q06418); assay: TYRO3 Enzyme Assay (LanthaScreen Eu Kinase Binding); settings: averaged IC50; TYRO3 5 nM; 60-minute incubation at 22° C.; TR-FRET
T5 construct: GST-tagged recombinant human TYRO3 kinase domain; purchased Carna PR7480A
T5 sequence (Q06418 518-790 limits assumed): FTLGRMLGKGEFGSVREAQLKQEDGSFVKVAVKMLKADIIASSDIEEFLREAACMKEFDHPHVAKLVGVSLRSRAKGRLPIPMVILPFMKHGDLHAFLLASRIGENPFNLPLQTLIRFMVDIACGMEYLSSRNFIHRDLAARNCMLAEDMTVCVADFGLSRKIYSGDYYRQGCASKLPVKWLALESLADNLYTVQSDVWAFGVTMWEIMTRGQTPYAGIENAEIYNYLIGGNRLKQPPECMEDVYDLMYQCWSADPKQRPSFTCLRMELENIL
Outline: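 Competitive tracer-displacement TR-FRET: 5 nM kinase, 20 nM Alexa-Fluor Tracer 236 and 2 nM Eu-anti-GST with threefold-diluted compound in 25 mM HEPES pH 7.4, 10 mM MgCl2, 0.01% Triton X-100, 2% DMSO, 60 min at 22° C. Ratiometric percent of control fitted to a 4-parameter logistic; IC50 at 50 POC.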

T1 sequence (P08581 1078-1345 L1195V limits assumed): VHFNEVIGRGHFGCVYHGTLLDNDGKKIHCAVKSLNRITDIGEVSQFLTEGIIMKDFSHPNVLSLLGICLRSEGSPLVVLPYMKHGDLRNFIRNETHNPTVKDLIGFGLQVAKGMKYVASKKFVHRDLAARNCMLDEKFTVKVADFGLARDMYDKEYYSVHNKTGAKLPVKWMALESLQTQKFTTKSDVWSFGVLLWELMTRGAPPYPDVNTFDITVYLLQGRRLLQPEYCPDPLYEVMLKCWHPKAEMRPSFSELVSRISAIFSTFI

| Compound | IC50 (human MET kinase L1195V) [nM] | IC50 (human MET kinase F1200I) [nM] | IC50 [1] [nM] | IC50 [2] [nM] | IC50 [3] [nM] |
| --- | --- | --- | --- | --- | --- |
| COc1cc2nccc(Oc3ccc(NC(=O)c4cn(C(C)C)cc(-c5ccc(F)c(F)c5)c4=O)nc3)c2cc1OC [Example 6] | 62.1 | 8.1 | 7.8 | 8.8 | 11 |
| COc1cc2nccc(Oc3ccc(NC(=O)c4cn(CCC(C)C)cc(-c5ccc(F)cc5F)c4=O)nc3)c2cc1OC [Example 36, 5-(2,4-difluorophenyl)-N-(5-((6,7-dimethoxyquinolin-4yl)oxy)pyridin-2-yl)-1-isopentyl-4-oxo-1,4-dihydropyridine-3-carboxamide] | 14.4 | 3.2 | 2.4 | 2.4 | 14 |
| CCCn1cc(C(=O)Nc2ccc(Oc3ccnc4cc(OC)c(OC)cc34)cn2)c(=O)c(-c2ccc(F)cc2)c1 [Example 10, N-(5((6,7-dimethoxyquinolin-4-yl)oxy)pyridin-2-yl)-5-(4-fluorophenyl)-4-oxo-1-propyl-1,4-dihydropyridine-3-carboxamide] | 9.7 | 4.2 | 3.5 | 3.6 | 15 |
| COc1cc2nccc(Oc3ccc(NC(=O)c4cn(CC(C)C)cc(-c5ccc(F)cc5)c4=O)nc3)c2cc1OC [Example 11, N-(5-((6,7-dimethoxyquinolin-4-yl)oxy)pyridin-2-yl)-5-(4-fluorophenyl)-1-isobutyl-4-oxo-1,4-dihydropyridine-3-carboxamide] | 21.4 | 6.9 | 7.7 | 7.8 | 33 |
| COc1cc2nccc(Oc3ccc(NC(=O)c4cn(CC(=O)N(C)C)cc(-c5ccc(F)cc5)c4=O)nc3)c2cc1OC [Example 23, N-(5-((6,7-dimethoxyquinolin-4yl)oxy)pyridin-2-yl)-1-(2-(dimethylamino)-2-oxoethyl)-5-(4-fluorophenyl)-4-oxo-1,4-dihydropyridine-3-carboxamide] | 39.6 | 4.3 | 2.9 | 2.8 | 14 |
| COc1cc2nccc(Oc3ccc(NC(=O)c4cn(CC(=O)N(C)C)cc(-c5ccc(F)cc5F)c4=O)nc3)c2cc1OC [Example 13, 5-(2,4-difluorophenyl)-N-(5((6,7-dimethoxyquinolin-4-yl)oxy)pyridin-2-yl)-1-(2-(dimethylamino)-2-oxoethyl)-4-oxo-1,4-dihydropyridine-3-carboxamide] | 83.8 | 4.8 | 4.9 | 3.4 | 22 |
| CCC(CC)n1cc(C(=O)Nc2ccc(Oc3ccnc4cc(OC)c(OC)cc34)cn2)c(=O)c(-c2ccc(F)cc2F)c1 [Example 16, 5-(2,4-difluorophenyl)-N-(5-((6,7-dimethoxyquinolin-4yl)oxy)pyridin-2-yl)-4-oxo-1-(pentan-3-yl)-1,4-dihydropyridine-3-carboxamide] | 34.6 | 6.8 | 4.6 | 6.1 | 11 |
| COc1cc2nccc(Oc3ccc(NC(=O)c4cn(C(C)C)cc(-c5ccc(F)c(Cl)c5)c4=O)nc3)c2cc1OC [Example 21, 5-(3-chloro-4-fluorophenyl)-N-(5-((6,7-dimethoxyquinolin-4-yl)oxy)pyridin-2-yl)-1-isopropyl-4-oxo-1,4-dihydropyridine-3-carboxamide] | 77.7 | 16.2 | 13.6 | 13.5 | 26 |
| COc1cc2nccc(Oc3ccc(NC(=O)c4cn(C(C)C)cc(-c5ccc(Cl)cc5)c4=O)nc3)c2cc1OC [Example 5, 5-(4-chlorophenyl)-N-(5-((6,7-dimethoxyquinolin-4-yl)oxy)pyridin-2-yl)-1-isopropyl-4-oxo-1,4-dihydropyridine-3-carboxamide] | 9.8 | 5.7 | 6.4 | 6.4 | 12 |
| CCn1cc(C(=O)Nc2ccc(Oc3ccnc4cc(OC)c(OC)cc34)cn2)c(=O)c(-c2ccc(F)cc2)c1 [Example 3] | 15.3 | 5 | 3 | 3.2 | 5 |
| CNC(=O)Cn1cc(C(=O)Nc2ccc(Oc3ccnc4cc(OC)c(OC)cc34)cn2)c(=O)c(-c2ccc(F)cc2)c1 [Example 22] | 17.7 | 2.5 | 3.1 | 1.8 | 14 |
| COc1cc2nccc(Oc3ccc(NC(=O)c4cn(C)c(C(C)C)c(-c5ccc(F)cc5)c4=O)nc3)c2cc1OC [Example 45, N-(5-((6,7-dimethoxyquinolin-4-yl)oxy)pyridin-2-yl)-5-(4-fluorophenyl)-6-isopropyl-1-methyl-4-oxo-1,4-dihydropyridine-3-carboxamide] | 41.4 | 8.3 | 5.7 | 4.4 | 91 |

The remaining lines, values ahead:

| IC50 (human MET kinase L1195V) [nM] | IC50 (human MET kinase F1200I) [nM] | IC50 [1] [nM] | IC50 [2] [nM] | IC50 [3] [nM] | Compound |
| --- | --- | --- | --- | --- | --- |
| 1030 | 104 | 90.4 | 59.2 | 470 | CC(C)n1cc(C(=O)Nc2ccc(Oc3ccnc4cc(OC(F)(F)F)ccc34)cn2)c(=O)c(-c2ccc(F)cc2)c1 [Example 50, 5-(4-fluorophenyl)-1-isopropyl-4-oxo-N-(5-((7-(trifluoromethoxy)quinolin-4-yl)oxy)pyridin-2-yl)-1,4-dihydropyridine-3-carboxamide] |
| 31.7 | 5.4 | 4.9 | 6.8 | 10 | COc1cc2c(Oc3ccc(NC(=O)c4cn(C(C)C)c(C)c(-c5ccc(F)cc5)c4=O)nc3)ccnc2cc1F [Example 48, N-(5-((7-fluoro-6-methoxyquinolin-4yl)oxy)pyridin-2-yl)-5-(4-fluorophenyl)-1-isopropyl-6-methyl-4-oxo-1,4-dihydropyridine-3-carboxamide] |
| 5.3 | 5 | 4.5 | 3.9 | 10 | COc1cc2c(Oc3ccc(NC(=O)c4cn(C(C)C)cc(-c5ccc(F)cc5)c4=O)nc3)ccnc2cc1OCCCN1CCOCC1 [Example 56, 5-(4-fluorophenyl)-1-isopropyl-N-(5-((6-methoxy-7-(3-morpholinopropoxy)quinolin-4-yl)oxy)pyridin-2-yl)-4-oxo-1,4-dihydropyridine-3-carboxamide] |
| 35 | 3.5 | 3.1 | 2.7 | 6 | COc1cc2nccc(Oc3ccc(NC(=O)c4cn(C(C)C)cc(-c5ccc(F)cc5)c4=O)cn3)c2cc1OC [Example 58, N-(6-((6,7-dimethoxyquinolin-4-yl)oxy)pyridin-3-yl)-5-(4-fluorophenyl)-1-isopropyl-4-oxo-1,4-dihydropyridine-3-carboxamide] |
| 21.9 | 3.4 | 2.8 | 3 | 5 | COc1cc2nccc(Oc3ccc(NC(=O)c4cn(CCN(C)C)cc(-c5ccc(F)cc5)c4=O)nc3)c2cc1OC [Example 46] |
| 14.7 | 6.7 | 3.8 | 4.7 | 21 | COc1cc2nccc(Oc3cnc(NC(=O)c4cn(C(C)C)cc(-c5ccc(F)cc5)c4=O)nc3)c2cc1OC [Example 54, N-(5-((6,7-dimethoxyquinolin-4-yl)oxy)pyrimidin-2-yl)-5-(4-fluorophenyl)-1-isopropyl-4-oxo-1,4-dihydropyridine-3-carboxamide] |
